Consider 13 molecules from patent US5430031A, “Serotoninergic ergoline derivatives” (Farmitalia Carlo Erba S.r.l., priority 1992, dated 1995).

pIC50: −log10 of the molar value. Where two headings read alike, the source gives them in different places.

For assay [1], the target named is serotonin 2 (5-HT2) receptor (Rattus norvegicus, UniProt P14842). As to the kind of experiment: 5-HT2 receptor affinity, 3H-Ketanserin binding test (Experiment 2).
Experimental: Experiment 2: affinity for serotonin 2(5-HT2)receptor (^3 H-Ketanserin binding test).
The suspension was centrifuged at 40,000×g for 20 minutes at 0° C. again. The resulting pellet was homogenized in 100 volumes of the above buffer and provided as synaptosome membranes solution for the next assay.
To the aliquots (900μ) of synaptosome membranes solution were added 50 μl solution of ^3 H-Ketanserin solution at the terminal concentration of 0.2 mM and 50 μl of test compound or its medium, and incubated at 37° C. for 20 minutes. After completion of the reaction, the mixture was rapidly vacuum-filtered through Whatman® GF/B filters. The filters were washed three times with 5 ml of the above buffer, and then the radioactivity of the residue remaining on the filters was measured by liquid scintillation counter. Non specific binding was determined under the presence of 10 μM of mianserin.
Assay [2] deals with T1, serotonin 1A (5-HT1A) receptor (Rattus norvegicus, UniProt P19327).
T1 construct: Freezed hippocampus dissected out from rats were homogenized; from tissue; host or cells: rat hippocampus, crude synaptosome membranes
T1 sequence (P19327 1-422): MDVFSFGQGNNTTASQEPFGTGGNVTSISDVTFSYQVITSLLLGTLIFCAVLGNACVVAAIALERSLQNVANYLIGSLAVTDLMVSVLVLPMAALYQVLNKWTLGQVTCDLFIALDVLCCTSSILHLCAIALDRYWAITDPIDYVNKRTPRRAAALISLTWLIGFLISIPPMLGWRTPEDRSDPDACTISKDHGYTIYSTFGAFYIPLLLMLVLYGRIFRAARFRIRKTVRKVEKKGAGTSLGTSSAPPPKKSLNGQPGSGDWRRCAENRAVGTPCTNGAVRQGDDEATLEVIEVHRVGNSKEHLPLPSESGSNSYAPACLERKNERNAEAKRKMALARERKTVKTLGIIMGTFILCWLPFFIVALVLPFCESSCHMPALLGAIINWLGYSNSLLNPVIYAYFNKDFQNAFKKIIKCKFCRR
As to the kind of experiment: 5-HT1A receptor affinity, 3H-8-OH-DPAT binding test (Experiment 1). Here is the method:
Experiment 1: affinity for serotonin 1A (5-HT1A) receptor [^3 H-8-Hydroxy-2-dipropylaminotetralin (^3 H-8-OH-DPAT)binding test]
After completion of reaction, the suspension was centrifuged at 40,000×g for 20 minutes at 0° C.
Then to the mixture was added 5 ml of ice-cold 50 mM Tris-CHI buffer (pH 7.4) rapidly vacuum-filtered through Whatman® GF/B filters and was washed twice with 5 ml of the same buffer. The radioactivity of the residue remaining on the filters was measured by liquid scintillation counter. Nonspecific binding was determined under the presence of 10^-5 M serotonin (5-HT).

The next assay has as its target T2, dopamine 2 (D2) receptor (Rattus norvegicus, UniProt P61169).
T2 construct: Freezed corpus striatum dissected out from rats were homogenized; from tissue; host or cells: rat corpus striatum, crude synaptosome membranes
As to the kind of experiment: D2 receptor affinity, 3H-Spiperone binding test (Experiment 3). The conditions noted are these: 3H-Spiperone 0.2 nM, corpus striatum, 37° C., 20 minutes; read-out: RECEPTOR BINDING I-C50 D2. Here is the method:
Experiment 3: affinity for dopamine 2 (D2)receptor (^3 H-Spiperone binding test.)
The resulting pellet was homogenized in 150 volumes of 50 mM Tris-HCl buffer (PH 7.1) containing 120 mM potassium chloride, 2 mM calcium chloride, 1 mM magnesium chloride, 0,1% ascorbic acid and 10 μM pargyline. The suspension was incubated at 37° C. for 10 minutes and then provided as synaptosome membranes solution for the next assays.
To the aliquots (900μ) of synaptosome membranes solution were added 50 μl of ^3 H-Spiperone solution at the terminal concentration of 0.2 nM and 50 μl of test compound solution or 50 μl of its medium, and incubated at 37° C. for 20 minutes. After completion of the reaction, the mixture was rapidly vacuum-filtered through Whatman® GF/B filters. The filters were washed three times with 5 ml of the above buffer, and then the radioactivity of the residue remaining on the filters was measured by liquid scintillation counter.

The subject of the next assay is group-caged mice. As to the kind of experiment: stress-induced hyperthermia, screening model of anxiety. The assay is classed as in vivo. The conditions noted are these: Mouse, ip. From the text: This procedure is based upon the antagonism of an increase in rectal temperature observed in group-caged mice as they are being removed from their cohorts.

T2 sequence (P61169 whole entry): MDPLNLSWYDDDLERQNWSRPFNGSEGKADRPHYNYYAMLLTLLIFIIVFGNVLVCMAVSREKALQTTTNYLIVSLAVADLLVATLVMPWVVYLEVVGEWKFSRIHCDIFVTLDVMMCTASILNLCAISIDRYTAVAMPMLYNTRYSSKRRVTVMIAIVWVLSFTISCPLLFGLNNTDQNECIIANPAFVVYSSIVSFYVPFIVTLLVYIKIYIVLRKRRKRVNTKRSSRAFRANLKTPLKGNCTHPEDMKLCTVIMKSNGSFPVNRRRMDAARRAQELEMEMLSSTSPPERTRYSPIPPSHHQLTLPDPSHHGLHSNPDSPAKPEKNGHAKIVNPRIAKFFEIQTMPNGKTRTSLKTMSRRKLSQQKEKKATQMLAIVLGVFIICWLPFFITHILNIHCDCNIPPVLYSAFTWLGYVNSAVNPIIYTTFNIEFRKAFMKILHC
serotonin 2 (5-HT2) receptor, sequence (P14842 whole entry): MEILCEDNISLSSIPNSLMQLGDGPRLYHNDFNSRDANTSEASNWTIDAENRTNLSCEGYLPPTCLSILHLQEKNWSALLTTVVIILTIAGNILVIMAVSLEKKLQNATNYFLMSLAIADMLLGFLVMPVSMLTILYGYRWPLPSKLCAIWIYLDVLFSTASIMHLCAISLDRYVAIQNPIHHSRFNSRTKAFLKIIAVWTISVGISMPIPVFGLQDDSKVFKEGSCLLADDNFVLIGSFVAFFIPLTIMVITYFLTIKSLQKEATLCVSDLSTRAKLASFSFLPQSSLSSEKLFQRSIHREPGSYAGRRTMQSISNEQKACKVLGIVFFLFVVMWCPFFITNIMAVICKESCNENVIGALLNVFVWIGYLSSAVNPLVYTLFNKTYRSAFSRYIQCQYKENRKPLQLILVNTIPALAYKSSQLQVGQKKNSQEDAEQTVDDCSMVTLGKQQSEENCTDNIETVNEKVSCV

Turning to `CN1C[C@H](CO)C[C@@H]2c3cc(C(C)(C)C)cc4[nH]cc(c34)C[C@H]21` [Example 3, 6-Methyl-8β-hydroxymethyl-13-t-butyl-ergoline], the pIC50 in assay [1] was 5.96; in assay [2] it was 8.00; at dopamine 2 (D2) receptor, 5.35.

As for `CN1C[C@H](CNC(=O)C2CCCCC2)C[C@@H]2c3cc(C(C)(C)C)cc4[nH]cc(c34)C[C@H]21` [Example 13, 6-Methyl-8β-cyclohexylcarbonylaminomethyl-13-t-butyl-ergoline], the pIC50 in assay [1] is 5.96; in assay [2], 8.30; at dopamine 2 (D2) receptor, 5.77.

For `CN1CC(CNC(=O)Cc2ccccc2)CC2c3cc(C(C)(C)C)cc4[nH]cc(c34)CC21` (stereo not drawn) [Example 6, 6-Methyl-8β.phenylacetylaminomethyl-13-t-butyl-ergoline], the pIC50 was 6.15 in assay [1], 8.10 in assay [2] and 5.90 on dopamine 2 (D2) receptor. The molecule further yielded an ED50 with group-caged mice of 0.06 mg/kg.

`COC(=O)C1CC2c3cc(C(C)(C)C)cc4[nH]c(SC)c(c34)CC2N(C)C1` (stereo not drawn) [Example 1, 2-Thiomethyl-6-methyl-8β-methoxycarbonyl (13,14)-t-butyl-ergoline]: the pIC50 in assay [1] (read-out: RECEPTOR BINDING I-C50 5-HT2, 3H-Ketanserin 0.2 mM (so in the source), rat cerebral cortex, 37° C., 20 minutes) was 5.17; in assay [2] (read-out: RECEPTOR BINDING I-C50 5-HT1A, 3H-8-OH-DPAT 0.2 nM, rat hippocampus, 37° C., 10 minutes) it was 7.52; on dopamine 2 (D2) receptor, 5.28.

Consider `Cc1cc(C(=O)NCC2CC3c4cc(C(C)(C)C)cc5[nH]cc(c45)CC3N(C)C2)nn1C` (stereo not drawn) [Example 16, 6-Methyl-8β-(1,5-dimethyl-3-pyrazoyl)aminomethyl-13-t-butyl-ergoline], for which, in the assay on group-caged mice, the ED50 worked out at 0.06 mg/kg.

In the case of `CN1C[C@H](CNC(=O)c2cncc(Br)c2)C[C@@H]2c3cc(C(C)(C)C)cc4[nH]cc(c34)C[C@H]21` [Example 9, 6-methyl-8β-(5-bromo-nicotinoyl)aminomethyl-13-t-butyl-ergoline], the pIC50 in assay [1] was 5.96; in assay [2], 8.00; on dopamine 2 (D2) receptor, 5.68. For the same molecule, the ED50 in the assay with group-caged mice amounted to 0.03 mg/kg.

In the case of `CN1C[C@H](CNC(=O)c2ccncc2)C[C@@H]2c3cc(C(C)(C)C)cc4[nH]cc(c34)C[C@H]21` [Example 8, 6-Methyl-8β-isonicotinoylaminomethyl-13-t-butyl-ergoline], the pIC50 in assay [1] was 5.68; in assay [2], 7.10; on dopamine 2 (D2) receptor it was 5.54.

In the case of `CN1C[C@H](CNC(=O)C(C)(C)C)C[C@@H]2c3cc(C(C)(C)C)cc4[nH]cc(c34)C[C@H]21` [Example 7, 6-Methyl-8β-pivaloylaminomethyl-13-t-butyl-ergoline], the pIC50 in assay [1] is 5.92; in assay [2], 8.00; at dopamine 2 (D2) receptor, 5.29. Besides, the 50% effect level in the assay with group-caged mice (ED50) was put at a dose of 0.06 mg/kg.

As to `COC(=O)[C@@H]1C[C@@H]2c3cc(C(C)(C)C)cc4[nH]cc(c34)C[C@H]2N(C)C1` [Example 2, 6-Methyl-8β-methoxycarbonyl-13-t-butyl-ergoline], the pIC50 in assay [1] is 5.73; in assay [2] it was 8.00; at dopamine 2 (D2) receptor, 5.56.

Take `CN1C[C@H](CNC(=O)Nc2ccccc2)C[C@@H]2c3cc(C(C)(C)C)cc4[nH]cc(c34)C[C@H]21` [Example 12, 6-Methyl-8β-phenylaminocarbonylaminomethyl-13-t-butyl-ergoline]: the pIC50 in assay [1] is 5.21; in assay [2], 8.00; on dopamine 2 (D2) receptor, 5.68.

As for `Cc1nc(C(=O)NCC2CC3c4cc(C(C)(C)C)cc5[nH]cc(c45)CC3N(C)C2)cs1` (stereo not drawn) [Example 17, 6-Methyl-8β-(2-methyl-4-thiazoyl)aminomethyl-13-t-butyl-ergoline], the ED50 in the assay with group-caged mice is 0.06 mg/kg.

Turning to `CCOC(=O)NC[C@@H]1C[C@@H]2c3cc(C(C)(C)C)cc4[nH]cc(c34)C[C@H]2N(C)C1` [Example 11, 6-Methyl-8β-ethoxycarbonylaminomethyl-13-t-butyl-ergoline], the pIC50 in assay [1] is 5.46; in assay [2], 7.30; on dopamine 2 (D2) receptor, 5.51. For the same molecule, it took a dose of 0.06 mg/kg to reach the 50% effect level with group-caged mice (ED50).

With `CN1C[C@H](CN)C[C@@H]2c3cc(C(C)(C)C)cc4[nH]cc(c34)C[C@H]21` [Example 4, 6-Methyl-8β-aminomethyl-13-t-butyl-ergoline], the pIC50 was 6.15 in assay [1], 8.00 in assay [2] and 5.48 at dopamine 2 (D2) receptor.

What is called ED50 is the dose at which the effect has come halfway, by size or by number of responders.
